Values joined by “and” are separate entries in the source; they are usually repeats but may differ in a detail not shown here. Equal values may be shown once. Read-outs that look alike come from different tables or passages of the source.
Key:
KRAS G12S = KRAS G12S (Homo sapiens (Human), UniProt P01116+P62937, G12S); experiment: Ras-Raf (BRAF RBD) disruption / FRET / MOA assay, KRAS G12S; format: biochemical; conditions: Ras-Raf disruption/FRET/MOA assay; class symbols; read-out: KRAS G12S FRET data IC50
Sequence of KRAS G12S (P01116-2 other isoform, or with tags, fused parts or gaps G12S): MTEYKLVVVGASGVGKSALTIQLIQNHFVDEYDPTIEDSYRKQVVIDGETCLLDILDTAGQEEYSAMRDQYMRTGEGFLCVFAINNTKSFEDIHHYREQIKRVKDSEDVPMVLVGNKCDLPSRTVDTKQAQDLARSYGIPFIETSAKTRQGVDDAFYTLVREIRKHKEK
Sequence of KRAS G12S (P62937 whole entry): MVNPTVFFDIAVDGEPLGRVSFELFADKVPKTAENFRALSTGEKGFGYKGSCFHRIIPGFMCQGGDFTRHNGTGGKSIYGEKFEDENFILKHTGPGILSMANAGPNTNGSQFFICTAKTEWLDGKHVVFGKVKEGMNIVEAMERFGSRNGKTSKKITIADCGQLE
Procedure, shortened: (§1)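 Compounds, top final concentration 30 μM in 10-point 3-fold series, incubated 3 hours at 25° C with nucleotide-loaded Ras, cyclophilin A and BRAF RBD.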

K-Ras G13C = K-Ras G13C (Homo sapiens (Human), UniProt P01116+P62937, G13C); experiment: Ras-Raf (BRAF RBD) disruption / FRET / MOA assay, KRAS G13C; format: biochemical
Sequence of K-Ras G13C (P01116-2 other isoform, or with tags, fused parts or gaps G13C): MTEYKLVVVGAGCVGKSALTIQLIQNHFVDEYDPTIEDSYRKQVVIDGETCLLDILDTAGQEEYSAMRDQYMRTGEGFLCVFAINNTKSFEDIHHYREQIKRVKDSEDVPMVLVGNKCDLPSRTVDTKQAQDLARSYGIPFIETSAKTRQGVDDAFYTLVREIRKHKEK
Sequence of K-Ras G13C (P62937 whole entry): as the sequence (P62937 whole entry) above
Procedure, shortened: as §1

NCI-H358 (K-Ras G12C) = experiment: CellTiter-Glo cell viability assay, NCI-H358; format: cell-based, human; conditions: Homo sapiens, NCI-H358, 120 h, NCI-H358, 5-day treatment
Procedure, shortened: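 Steps: compound dispensed into wells holding cells; incubation to day 5; ~30 min room-temperature equilibration; luminescence read; sample signal divided by mean DMSO signal, times 100; four-parameter logistic curve fit.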

KRAS G12D = KRAS G12D (Homo sapiens (Human), UniProt P01116+P62937, G12D); experiment: Ras-Raf (BRAF RBD) disruption / FRET / MOA assay, KRAS G12D; format: biochemical; conditions: Ras-Raf disruption/FRET/MOA assay; class symbols; read-out: KRAS G12D FRET data IC50
Sequence of KRAS G12D (P01116-2 other isoform, or with tags, fused parts or gaps G12D): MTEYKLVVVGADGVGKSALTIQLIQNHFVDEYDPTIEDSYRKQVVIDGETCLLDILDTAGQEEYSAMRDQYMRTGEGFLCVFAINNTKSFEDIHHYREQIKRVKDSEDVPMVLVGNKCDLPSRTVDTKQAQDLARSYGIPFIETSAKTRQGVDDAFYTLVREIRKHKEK
Sequence of KRAS G12D (P62937 whole entry): as the sequence (P62937 whole entry) above
Procedure, shortened: as §1

[1] = test system: NCI-H358 cells (K-Ras G12C); experiment: Potency assay: pERK in NCI-H358 cells; format: cell-based, human; conditions: Homo sapiens
Procedure, shortened: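 Inhibition of cellular pERK after a 4 h treatment, detected by AlphaLISA or In-Cell Western. IC50 from a four-parameter concentration-response fit.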

NRAS G12C = NRAS G12C (Homo sapiens (Human), UniProt P01111+P62937, G12C); experiment: Ras-Raf (BRAF RBD) disruption / FRET / MOA assay, NRAS G12C; format: biochemical; conditions: read-out: IC50* NRAS G12C FRET data
Sequence of NRAS G12C (P01111 whole entry G12C): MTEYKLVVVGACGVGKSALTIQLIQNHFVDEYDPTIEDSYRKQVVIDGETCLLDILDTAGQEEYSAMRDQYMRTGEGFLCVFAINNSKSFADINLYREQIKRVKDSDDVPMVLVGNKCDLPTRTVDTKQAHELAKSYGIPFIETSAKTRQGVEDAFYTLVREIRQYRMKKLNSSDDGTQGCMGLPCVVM
Sequence of NRAS G12C (P62937 whole entry): as the sequence (P62937 whole entry) above
Procedure, shortened: as §1

KRAS G12V = KRAS G12V (Homo sapiens (Human), UniProt P01116+P62937, G12V); experiment: Ras-Raf (BRAF RBD) disruption / FRET / MOA assay, KRAS G12V; format: biochemical; conditions: read-out: IC50* KRAS G12V FRET data
Sequence of KRAS G12V (P01116-2 other isoform, or with tags, fused parts or gaps G12V): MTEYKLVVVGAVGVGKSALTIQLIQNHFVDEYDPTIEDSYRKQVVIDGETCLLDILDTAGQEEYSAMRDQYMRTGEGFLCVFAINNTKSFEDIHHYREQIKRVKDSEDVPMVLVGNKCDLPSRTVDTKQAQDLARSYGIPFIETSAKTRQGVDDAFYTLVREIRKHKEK
Sequence of KRAS G12V (P62937 whole entry): as the sequence (P62937 whole entry) above
Procedure, shortened: as §1

K-Ras G12C = K-Ras G12C (Homo sapiens (Human), UniProt P01116+P62937, G12C); experiment: Ras-Raf (BRAF RBD) disruption / FRET / MOA assay, KRAS G12C; format: biochemical
Sequence of K-Ras G12C (P01116-2 other isoform, or with tags, fused parts or gaps G12C): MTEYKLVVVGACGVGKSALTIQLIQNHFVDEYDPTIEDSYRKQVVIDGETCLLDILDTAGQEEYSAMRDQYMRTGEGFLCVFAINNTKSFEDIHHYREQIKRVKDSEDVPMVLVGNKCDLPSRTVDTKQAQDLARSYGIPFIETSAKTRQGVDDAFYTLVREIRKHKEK
Sequence of K-Ras G12C (P62937 whole entry): as the sequence (P62937 whole entry) above
Procedure, shortened: as §1

KRAS WT = KRAS WT (Homo sapiens (Human), UniProt P01116+P62937); experiment: Ras-Raf (BRAF RBD) disruption / FRET / MOA assay, KRAS WT; format: biochemical; conditions: read-out: IC50* KRAS WT FRET data
Sequence of KRAS WT (P01116-2 other isoform, or with tags, fused parts or gaps): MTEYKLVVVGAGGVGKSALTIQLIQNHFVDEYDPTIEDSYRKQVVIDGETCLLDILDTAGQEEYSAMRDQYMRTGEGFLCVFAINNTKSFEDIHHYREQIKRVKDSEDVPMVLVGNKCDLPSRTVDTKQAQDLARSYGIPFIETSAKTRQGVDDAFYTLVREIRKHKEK
Sequence of KRAS WT (P62937 whole entry): as the sequence (P62937 whole entry) above
Procedure, shortened: as §1

KRAS G13D = KRAS G13D (Homo sapiens (Human), UniProt P01116+P62937, G13D); experiment: Ras-Raf (BRAF RBD) disruption / FRET / MOA assay, KRAS G13D; format: biochemical; conditions: read-out: IC50* KRAS G13D FRET data
Sequence of KRAS G13D (P01116-2 other isoform, or with tags, fused parts or gaps G13D): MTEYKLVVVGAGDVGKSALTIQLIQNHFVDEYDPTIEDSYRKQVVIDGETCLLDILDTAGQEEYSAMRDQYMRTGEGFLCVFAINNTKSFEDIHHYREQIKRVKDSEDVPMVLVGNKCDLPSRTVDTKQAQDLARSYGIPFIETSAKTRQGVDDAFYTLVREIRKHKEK
Sequence of KRAS G13D (P62937 whole entry): as the sequence (P62937 whole entry) above
Procedure, shortened: as §1

[2] = KRAS G13C, Ras-Raf disruption/FRET/MOA assay, read-out: IC50* KRAS G13C FRET data
[3] = class symbols, read-out: Additional H358 Cell Viability assay data (K-Ras G12C, IC50)
[4] = NCI-H358, H358 KRAS G12C, read-out: pERK EC50
[5] = KRAS G12C, Ras-Raf disruption/FRET/MOA assay, read-out: IC50* KRAS G12C FRET data

SMILES | IC50 (KRAS G12S) | IC50 (K-Ras G13C; [2]) | IC50 (NCI-H358 (K-Ras G12C); [3]) | IC50 (KRAS G12D) | EC50 [1, 4] | IC50 (NRAS G12C) | IC50 (KRAS G12V) | IC50 (K-Ras G12C; [5]) | IC50 (KRAS WT) | IC50 (KRAS G13D) | IC50 (K-Ras G13C; with Cyclophilin A, BRAF RBD, read-out: FRET (K-Ras G13C) IC50) | IC50 (NCI-H358 (K-Ras G12C); read-out: H358 Cell Viability (K-Ras G12C) IC50) | EC50 ([1]; NCI-H358 cells, 4 hours, read-out: H358 pERK (K-Ras G12C) EC50) | IC50 (K-Ras G12C; with Cyclophilin A, BRAF RBD, read-out: FRET (K-Ras G12C) IC50)
CCn1c(-c2cccnc2COC)c2c3cc(ccc31)-c1cc(O)cc(c1)C[C@H](NC(=O)[C@@H](C(C)C)N(C)C(=O)[C@H]1CCN(C(=O)C#CCN3CCOCC3)C1)C(=O)N1CCC[C@H](N1)C(=O)OCC(C)(C)C2 [Example A200] | > 10 µM | 1 to 10 µM | 0.1 to 1 µM | > 10 µM | < 5 µM | 0.01 to 0.1 µM | > 10 µM | 0.01 to 0.1 µM | > 10 µM | > 10 µM |  |  |  | 
CCn1c(-c2cncnc2)c2c3cc(ccc31)-c1cccc(c1)[C@@H](OC)[C@H](NC(=O)[C@H](C(C)C)N(C)C(=O)[C@H]1CCN(C(=O)C#CCN3CCOCC3)C1)C(=O)N1CCC[C@H](N1)C(=O)OCC(C)(C)C2 [Example A208] | > 10 µM | > 10 µM | > 1 µM | > 10 µM | < 5 µM | 1 to 10 µM | > 10 µM | 0.1 to 1 µM | > 10 µM | > 10 µM | 7.48 µM | 0.004 µM | 0.013 µM | 0.023 µM
CCn1c(-c2ccccc2CN(C)C)c2c3cc(ccc31)-c1cc(O)cc(c1)C[C@H](NC(=O)[C@H](C(C)C)N(C)Cc1ccc(NC(=O)/C=C/CN(C)C)cn1)C(=O)N1CCC[C@H](N1)C(=O)OCC(C)(C)C2 [Example A213] | 1 to 10 µM and > 10 µM | 0.1 to 1 µM and 1 to 10 µM | > 1 µM | 1 to 10 µM and > 10 µM | < 5 µM | 1 to 10 µM and > 10 µM | 1 to 10 µM and > 10 µM | 0.1 to 1 µM and > 10 µM | 1 to 10 µM and > 10 µM | 1 to 10 µM and > 10 µM |  |  |  | 
C=CC(=O)N1CC[C@H](C(=O)N(C)c2ccccc2C(=O)N[C@H]2Cc3cc(O)cc(c3)-c3ccc4c(c3)c(c(-c3cnccc3COC)n4CC)CC(C)(C)COC(=O)[C@@H]3CCCN(N3)C2=O)C1 [Example A228] | > 10 µM | > 10 µM | > 1 µM | > 10 µM | < 5 µM | 1 to 10 µM | > 10 µM | 1 to 10 µM | > 10 µM | > 10 µM |  |  |  | 
C=CC(=O)N1CC(OC[C@H](C(=O)N[C@H]2Cc3cc(O)cc(c3)-c3ccc4c(c3)c(c(-c3cccnc3COC)n4CC)CC(C)(C)COC(=O)[C@@H]3CCCN(N3)C2=O)C(C)C)C1 [Example A232] | > 10 µM | 0.1 to 1 µM | 0.01 to 0.1 µM | > 10 µM | < 5 µM | 0.1 to 1 µM | 1 to 10 µM | 0.1 to 1 µM | 1 to 10 µM | 1 to 10 µM |  |  |  | 
CCn1c(-c2cccnc2COC)c2c3cc(ccc31)-c1cc(O)cc(c1)C[C@H](NC(=O)[C@H](C(C)C)N(C)C(=O)[C@H]1CCN(C(=O)C#CCN3[C@H](C)COC[C@@H]3C)C1)C(=O)N1CCC[C@H](N1)C(=O)OCC(C)(C)C2 [Example A237] | 0.1 to 1 µM | 0.1 to 1 µM | < 0.01 µM | 1 to 10 µM | < 5 µM | 0.01 to 0.1 µM | 0.1 to 1 µM | 0.01 to 0.1 µM | 1 to 10 µM | 1 to 10 µM |  |  |  | 
CCn1c(-c2cccnc2COC)c2c3cc(ccc31)-c1cc(O)cc(c1)C[C@H](NC(=O)[C@H](C(C)C)N(C)C(=O)[C@H]1CCN(C(=O)C#CC3(N(C)C)CC3)C1)C(=O)N1CCC[C@H](N1)C(=O)OCC(C)(C)C2 [Example A238] | 1 to 10 µM | 0.1 to 1 µM | 0.01 to 0.1 µM | > 10 µM | < 5 µM | 0.1 to 1 µM | 0.1 to 1 µM | 0.01 to 0.1 µM | 1 to 10 µM | 1 to 10 µM |  |  |  | 
